For experiment [1], the target named is T1, rat liver anandamide amidohydrolase (Rattus norvegicus, UniProt P97612).
T1 construct: Anandamide amidohydrolase was measured in rat brain or rat liver microsome fractions; from tissue; host or cells: rat liver microsome fractions
T1 sequence (P97612 1-579): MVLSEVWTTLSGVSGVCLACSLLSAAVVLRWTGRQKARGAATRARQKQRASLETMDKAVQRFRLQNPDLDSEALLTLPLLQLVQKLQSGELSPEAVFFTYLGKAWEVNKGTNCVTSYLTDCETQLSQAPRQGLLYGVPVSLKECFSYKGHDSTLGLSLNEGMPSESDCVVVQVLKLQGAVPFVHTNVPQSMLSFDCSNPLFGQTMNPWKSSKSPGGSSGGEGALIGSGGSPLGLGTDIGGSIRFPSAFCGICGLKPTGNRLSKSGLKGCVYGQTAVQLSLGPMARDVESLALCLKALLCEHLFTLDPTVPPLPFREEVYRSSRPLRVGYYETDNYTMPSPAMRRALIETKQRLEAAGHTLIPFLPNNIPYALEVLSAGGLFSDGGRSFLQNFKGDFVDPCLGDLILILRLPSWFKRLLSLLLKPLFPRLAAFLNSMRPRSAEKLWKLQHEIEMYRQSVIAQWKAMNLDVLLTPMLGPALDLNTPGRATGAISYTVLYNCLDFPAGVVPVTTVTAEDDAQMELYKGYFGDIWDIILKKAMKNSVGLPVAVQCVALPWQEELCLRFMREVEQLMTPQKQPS
The experiment in a line: Anandamide amidohydrolase assay, rat liver microsome fractions. In kind it is biochemical. A general note: Microsomes from liver hold many membrane-bound enzymes, among them those of drug oxidation.
Method: Anandamide amidohydrolase was measured in rat brain or rat liver microsome fractions. […] After 10 min. of incubation, the reactions were stopped with cold methanol, the radiolabeled lipids extracted with chloroform, and the organic phases brought to dryness under a stream of N2 gas. The radioactive products were then fractionated by thin-layer chromatography (solvent system: chloroform/methanol/ammonia, 90:10:1 vol/vol/vol), collected by scraping appropriate areas of the chromatography plate, and quantified by liquid scintillation counting.

Experiment [2] concerns the target T2, anandamide amidohydrolase of intact astrocytes (Rattus norvegicus, UniProt P97612).
T2 construct: endogenous in cells; host or cells: primary rat cortical astrocytes, 3 weeks in culture
T2 sequence (P97612 1-579): T1 sequence (P97612 1-579)
The experiment in a line: Assay in cultures of cortical astrocytes (anandamide amidohydrolase of intact cells). The note with it: rat cortical astrocyte cultures, 20 min incubation, 37° C., radiolabeled arachidonic acid or phospholipids measured; read-out: IC50, inhibition of anandamide amidohydrolase of intact astrocytes. In kind it is cell-based. The protocol: Cultures of rat cortical astrocytes, essentially free of neurons, were prepared following the standard procedures described in Cadas et al., J. Neurosci. 16, 3934-3942 (1996), and used after 3 weeks in culture. […] The organic phases were dried, and analyzed as follows. To measure radiolabeled anandamide and arachidonic acid, the organic extracts were fractionated by silica gel G column chromatography, as described in Fontana et al., Prostaglandins Leukotrienes Essential Fatty Acids 53, 301-308 (1995). Radiolabeled anandamide and arachidonic acid were eluted from the column with a solvent system of chloroform/methanol (9:1, vol/vol), and further purified by thin-layer chromatography (solvent system of chloroform/methanol/ammonia, 80:20:1, vol/vol/vol). To measure radiolabeled phospholipids, which were formed in intact cells from the enzymatic esterification of radiolabeled arachidonic acid, the organic extracts were fractionated by thin-layer chromatography (solvent system of chloroform/methanol/ammonia/water, 65:25:4:1, vol/vol/vol/vol).

Experiment [3] deals with uptake of radiolabeled anandamide. The experiment in a line: Uptake and intracellular level of radiolabeled anandamide in cortical astrocyte cultures. In kind it is cell-based. The note with it: rat cortical astrocyte cultures.
Experiment [4] concerns the target rat brain anandamide amidohydrolase (Rattus norvegicus, UniProt P97612). The experiment in a line: biochemical.
Method: Anandamide amidohydrolase was measured in rat brain or rat liver microsome fractions. The fractions (0.1 mg of protein) were prepared following the protocols of Desarnaud et al., J. Biol. Chem. 270, 6030-6035 (1995), and were incubated in 50 mM Tris-Cl (pH 7.4) at 37° C., in the presence of radiolabeled anandamide obtained from New England Nuclear, Wilmington, Del., 221 Ci/mmol), plus various concentrations of test inhibitor (0.1-100 μM). After 10 min. of incubation, the reactions were stopped with cold methanol, the radiolabeled lipids extracted with chloroform, and the organic phases brought to dryness under a stream of N2 gas. The radioactive products were then fractionated by thin-layer chromatography (solvent system: chloroform/methanol/ammonia, 90:10:1 vol/vol/vol), collected by scraping appropriate areas of the chromatography plate, and quantified by liquid scintillation counting.

With `O=C1O/C(=C/Br)CCC1c1cccc2ccccc12` (stereo not drawn) [E-6-(bromomethylene)tetrahydro-3-(1-naphthalenyl)-2H-pyrane-2-one], the “inhibitory concentrations for liver enzyme relative to brain” value in experiment [1] (liver versus brain anandamide amidohydrolase) is “more than 100 fold”. Moreover, the IC50 in experiment [1] (rat liver microsome fractions, 10 min incubation, 37° C., pH 7.4, radiolabeled anandamide, read-out: IC50, inhibition of the liver enzyme) is 97000 nM; in experiment [2] it was 500 nM; in experiment [4], 700 nM. The “inhibition of uptake of radiolabeled anandamide” value in experiment [3] is reported as “does not inhibit”. The “intracellular levels of radiolabeled anandamide” value in experiment [3] (in the presence of the compound) was “greatly increased”.

A word on the IC50: it is the midpoint of a concentration-inhibition curve.

For the origin of these results see patent US6525090B1, “Methods of treating mental diseases, inflammation and pain” (Neurosciences Research Foundation, Inc., priority 1996, dated 2003).
